Results on 35 molecules are retold here after patent US20090048295A1, “SUBSTITUTED 5,6,7,8-TETRAHYDROQUINOLINE DERIVATIVES, COMPOSITIONS, AND METHODS OF USE THEREOF” (priority 2007, published 2009).

Several values for one entry are separate records, joined by “and”; a condition that tells them apart may be missing. Equal values may be shown once.

Assay [1] deals with T1, C5a receptor (Homo sapiens, UniProt P21730).
T1 sequence (P21730 1-350): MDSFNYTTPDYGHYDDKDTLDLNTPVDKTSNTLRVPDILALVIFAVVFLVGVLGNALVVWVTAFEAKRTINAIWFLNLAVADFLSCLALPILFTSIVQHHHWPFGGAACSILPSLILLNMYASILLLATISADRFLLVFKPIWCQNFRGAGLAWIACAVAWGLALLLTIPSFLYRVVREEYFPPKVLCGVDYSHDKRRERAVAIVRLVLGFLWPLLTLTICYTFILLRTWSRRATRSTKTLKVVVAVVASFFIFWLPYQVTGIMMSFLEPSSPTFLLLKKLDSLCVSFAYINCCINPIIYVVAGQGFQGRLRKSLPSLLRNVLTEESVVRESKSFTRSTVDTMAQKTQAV
In words: Calcium Mobilization Assay (C5a-induced Ca2+ mobilization, FLIPR, differentiated U937 cells). Also noted: endogenous in cells; host or cells: U937 cells differentiated with dibutyryl cAMP. To be noted: […] recombinant human C5a, 20 min pre-incubation, multiple values = duplicate experiments, read-out: C5a Induced Ca Mobil. Average IC50. In kind it is cell-based. Here is the method: U937 cells (human monocytic cell line) were cultured in RPMI-1640 medium supplemented with 10% fetal bovine serum, 10 mM HEPES, 0.11 g/L pyruvate, 0.29 g/L L-glutamine, 100 IU/mL penicillin G and […] streptomycin. Dibutyryl cAMP (1 mM) was added to induce differentiation 2 or 3 days prior to loading the cells with 4.4 μM Fluo-3AM (Molecular Probes) for 30 min at 37° C. in RPMI medium containing 20 mM HEPES, 0.1% bovine serum albumin (BSA) and 5 mM probenecid. After washing, cells were dissolved at 2×10^6 cells/ml in HBSS buffer (Invitrogen 14190-094) supplemented with 10 mM HEPES, 2.5 mM probenecid and 0.1% BSA (pH=7.4), and sedimented by 1 min centrifugation (1500 rpm) in black 96-well plates (Costar) (200,000 cells/well). A 100× concentration range of test compounds was prepared in DMSO and further diluted in HBSS buffer. U937 cells were pre-incubated with compound for 20 minutes at room temperature (1% DMSO), before recombinant human C5a (Sigma) was added to the cells (1.5 nM). Changes in intracellular free Ca^2+ concentration were measured using the Fluorescent Imaging Plate Reader (FLIPR, Molecular Devices). Fluorescence was recorded every second from 10 seconds before the addition of C5a until 2 min after the addition. The maximal fluorescence obtained during this time frame was used for further calculations.

Assay [2] concerns the target T1, C5a receptor. Nature of the assay: [125I]-C5a Radioligand Binding Assay (competition binding, differentiated U937 cells).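 On all read-outs here: cells preincubated with compound 30 min at room temperature, then 60 min at 4 °C with radioligand, bound counts read by scintillation, nonspecific binding defined with 100 nM C5a.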 The note with it: [125I]-C5a 0.05 nM, U937 cells, multiple values = duplicate experiments; for inhibition at 1 µM: read-out: [125I]-C5a Binding % Inhibition 1 μM, test compound 1 μM; for inhibition at 10 µM: read-out: [125I]-C5a Binding % Inhibition 10 μM, test compound 10 μM; for [125I]-C5a Binding % Inhibition 10 μM: test compound 10 μM; for [125I]-C5a Binding % Inhibition 1 μM: test compound 1 μM.

Take `CCc1cccc(CC)c1-c1cc(OC)c2c(n1)CCCC2Nc1cccc2c1CCC2` (stereo not shown) [Compound 121]: the half-inhibitory concentration (IC50) – broadly, the point on the concentration scale where inhibition reaches its midpoint – in assay [1] was over 10 µM. For the same molecule, in assay [2], the inhibition (in general, the drop in the measured response relative to a control, in per cent) at 1 µM was determined as 59% and the inhibition at 10 µM was determined as 75%.
The like results for `CCc1cccc(CC)c1-c1cc(OC)c2c(n1)CCCC2N1CCc2ccc(C(=O)O)cc2C1` (stereo not shown) [Compound 131] were, in that order, over 10 µM, -26% and -9%.
The like results for `CCc1cccc(CC)c1-c1cc(OC)c2c(n1)CCC[C@H]2N(C)[C@H]1CCCc2ccccc21` [Compound 43] were, in that order, 0.817 µM, 80% and 83%.
In the same order, the values of `CCc1cccc(CC)c1-c1cc(OC)c2c(n1)CCCC2N1CCc2cc(C(=O)OC)ccc2C1` (stereo not shown) [Compound 98] are over 10 µM, 43% and 70%.
Take `CCc1cccc(CC)c1-c1cc(SC)c2c(n1)CCCC2N(CC)c1cccc2ccccc12` (stereo not shown) [Compound 10]: the IC50 in assay [1] came out at 0.082 µM. Besides, in assay [2], the inhibition at 1 µM is 92% and the inhibition at 10 µM was 94%.
As for `CCc1cccc(CC)c1-c1cc(OC)c2c(n1)CCC[C@@H]2N(C)[C@H]1CCCc2ccccc21` [Compound 77], the concentration for half-maximal inhibition (IC50) in assay [1] was determined as 5.5 µM. The “[125I]-C5a Binding % Inhibition 10 μM” value in assay [2] is 72%.
With `CCc1cccc(CC)c1-c1cc(OC)c2c(n1)CCCC2N(C)c1c(C)ccc2ccccc12` (stereo not shown) [Compound 52], in assay [1], the IC50 stood at 1.48 µM. Besides, in assay [2], the inhibition at 1 µM is 86% and the inhibition at 10 µM came to 86%.
`CCN(c1cccc2ccccc12)C1CCCc2nc(-c3ccccc3C(C)C)cc(OC)c21` (stereo not shown) [Compound 57]: in assay [1], the IC50 was determined as 1.73 µM. Also, in assay [2], the inhibition at 1 µM turned out to be 76% and the inhibition at 10 µM was 89%.
The like results for `CCc1cccc(CC)c1-c1cc(OC)c2c(n1)CCCC2N(C)c1ccccc1C` (stereo not shown) [Compound 42] were, in that order, 0.792 µM, 83% and 86%.
In the same order, the values of `CCc1cccc(CC)c1-c1cc(OC)c2c(n1)CCCC2N1CCCC1` (stereo not shown) [Compound 126] are over 10 µM, -11% and 18%.
Take `COc1cc(-c2c(C)cccc2C)nc2c1C(N(C)c1cccc3[nH]ccc13)CCC2` (stereo not shown) [Compound 113]: the half-inhibitory concentration (IC50) in assay [1] is over 10 µM. Besides, in assay [2], the “[125I]-C5a Binding % Inhibition 1 μM” value is recorded as 33% and the “[125I]-C5a Binding % Inhibition 10 μM” value came to 54%.
As to `CCN(c1cccc2ccccc12)C1CCCc2nc(-c3ccccc3C)cc(OC)c21` (stereo not shown) [Compound 30], the IC50 in assay [1] was determined as 0.354 µM. Besides, in assay [2], the inhibition at 1 µM is 68% and the inhibition at 10 µM stood at 82%.
In the same order, the values of `CCc1cccc(CC)c1-c1cc(OC)c2c(n1)CCCC2N(C)Cc1ccccc1` (stereo not shown) [Compound 123] are over 10 µM, 3% and 39%.
The like results for `CCN(c1cccc(C)c1C)C1CCCc2nc(-c3c(C)cccc3C)cc(OC)c21` (stereo not shown) [Compound 76] were, in that order, 5.13 µM, 83% and 85%.
The like results for `CCc1cccc(CC)c1-c1cc(OC)c2c(n1)CCCC2N(C)c1cccc2ccccc12` (stereo not shown) [Compound 104] were, in that order, over 10 µM, 56% and 64%.
For `CCc1cccc(CC)c1-c1cc(OC)c2c(n1)CCCC2N1CCc2cc(C(F)(F)F)ccc2C1` (stereo not shown) [Compound 102], in assay [1], the 50% inhibitory concentration (IC50) is over 10 µM. Moreover, in assay [2], the inhibition at 1 µM came to 74% and the inhibition at 10 µM is 80%.
With `CCc1cccc(CC)c1-c1cc(OC)c2c(n1)CCCC2N(C)c1cccc2cc(OC)ccc12` (stereo not shown) [Compound 22], the half-inhibitory concentration (IC50) in assay [1] is 0.176 µM. In assay [2], the “[125I]-C5a Binding % Inhibition 1 μM” value came out at 87% and the “[125I]-C5a Binding % Inhibition 10 μM” value turned out to be 86%.
Consider `CCc1cccc(CC)c1-c1cc(OC)c2c(n1)CCCC2Nc1cc(F)ccc1C` (stereo not shown) [Compound 50], for which, in assay [1], the half-maximal inhibitory concentration (IC50) turned out to be 1.38 µM. Further, in assay [2], the inhibition at 1 µM stood at 83% and the inhibition at 10 µM came to 85%.
In the same order, the values of `CCc1cccc(CC)c1-c1cc(OC)c2c(n1)CCCC2Nc1cc(-c2ccccc2)ccc1C` (stereo not shown) [Compound 66] are 2.46 µM, 83% and 88%.
In the same order, the values of `CCc1cccc(CC)c1-c1cc(OC)c2c(n1)CCCC2N(C)c1ccc(OC)cc1C` (stereo not shown) [Compound 80] are 6.19 µM, 80% and 81%.
The like results for `COc1cc(-c2c(C)cccc2C)nc2c1C(N(C)c1ccc(Cl)c3ccccc13)CCC2` (stereo not shown) [Compound 48] were, in that order, 1.21 µM, 85% and 91%.
For `CCc1cccc(CC)c1-c1cc(OC)c2c(n1)CCCC2N(C(C)=O)c1cccc2ccccc12` (stereo not shown) [Compound 79], in assay [1], the IC50 was found to be 6.17 µM. In assay [2], the inhibition at 1 µM was determined as 49% and the inhibition at 10 µM came out at 78%.
The like results for `CCc1cccc(CC)c1-c1cc(OC)c2c(n1)CCCC2N1CCc2c(Cl)cccc2C1` (stereo not shown) [Compound 56] were, in that order, 1.69 µM, 84% and 85%.
For the molecule `CCc1ccccc1NC1CCCc2nc(-c3c(CC)cccc3CC)cc(OC)c21` (stereo not shown) [Compound 41], the IC50 in assay [1] is 0.732 µM. Besides, in assay [2], the inhibition at 1 µM worked out at 85% and the inhibition at 10 µM was found to be 86%.
In the case of `CCc1cccc(CC)c1-c1cc(OC)c2c(n1)CCCC2N1CCCc2ccccc21` (stereo not shown) [Compound 65], in assay [1], the half-maximal inhibitory concentration (IC50) came to 2.43 µM. The “[125I]-C5a Binding % Inhibition 1 μM” value in assay [2] is −7% and 1%.
For `CCc1cccc(CC)c1-c1cc(OC)c2c(n1)CCCC2N(C)c1cc(OC)ccc1Cl` (stereo not shown) [Compound 47], the 50% inhibitory concentration (IC50) in assay [1] was found to be 0.949 µM. For the same molecule, in assay [2], the inhibition at 1 µM turned out to be 83% and the inhibition at 10 µM came out at 89%.
For `CCc1cccc(CC)c1-c1cc(OC)c2c(n1)CCCC2N(CC)c1cccc2c1CCCC2` (stereo not shown) [Compound 24], in assay [1], the concentration for half-maximal inhibition (IC50) was 0.216 µM. In addition, in assay [2], the inhibition at 1 µM was 88% and the inhibition at 10 µM is 91%.
The like results for `CCc1cccc(CC)c1-c1cc(OC)c2c(n1)CCCC2N1CCc2c(cccc2C(=O)O)C1` (stereo not shown) [Compound 129] were, in that order, over 10 µM, -46% and -20%.
Take `CCc1cccc(CC)c1-c1cc(OC)c2c(n1)CCCC2N(C)C1CCCc2ccccc21` (stereo not shown) [Compound 83]: the IC50 in assay [1] came to 8.13 µM. Moreover, in assay [2], the “[125I]-C5a Binding % Inhibition 1 μM” value is 51% and the “[125I]-C5a Binding % Inhibition 10 μM” value is listed as 71%.
With `CCc1cccc(CC)c1-c1cc(OC)c2c(n1)CCCC2N(C)c1cccc2c1CCC2` (stereo not shown) [Compound 72], in assay [1], the half-maximal inhibitory concentration (IC50) was found to be 3.79 µM. Also, in assay [2], the inhibition at 1 µM is 86% and the inhibition at 10 µM turned out to be 85%.
In the same order, the values of `CCc1cccc(CC)c1-c1cc(OC)c2c(n1)CCCC2N1CCc2ccc(C#N)cc2C1` (stereo not shown) [Compound 96] are over 10 µM, 77% and 87%.
In the same order, the values of `CCc1cccc(CC)c1-c1cc(OC)c2c(n1)CCCC2N(CC)c1ncnc2ccccc12` (stereo not shown) [Compound 135] are over 10 µM, 16% and 47%.
The like results for `CCc1cccc(CC)c1-c1cc(OC)c2c(n1)CCCC2N(C)Cc1cccs1` (stereo not shown) [Compound 94] were, in that order, over 10 µM, 56% and 77%.
For the molecule `COc1cccc(N(C)C2CCCc3nc(-c4c(C)cccc4C)cc(OC)c32)c1C` (stereo not shown) [Compound 117], the half-inhibitory concentration (IC50) in assay [1] is over 10 µM. For the same molecule, in assay [2], the “[125I]-C5a Binding % Inhibition 1 μM” value came to 86% and the “[125I]-C5a Binding % Inhibition 10 μM” value was determined as 85%.
For `CCc1cccc(CC)c1-c1cc(OC)c2c(n1)CCCC2N1CCc2cc(C(=O)O)ccc2C1` (stereo not shown) [Compound 128], the IC50 in assay [1] was over 10 µM. Besides, in assay [2], the inhibition at 1 µM was -25% and the inhibition at 10 µM is -9%.
